Test results from article PMC7880690, “Chemical genetics and proteome-wide site mapping reveal cysteine MARylation by PARP-7 on immune-relevant protein targets” (eLife, 2021).

How the values were obtained:
[1] = target: T1, PARP-7 (Homo sapiens, UniProt Q7Z3E1); details: time course in HEK 293 T cells
T1 sequence (Q7Z3E1 1-657): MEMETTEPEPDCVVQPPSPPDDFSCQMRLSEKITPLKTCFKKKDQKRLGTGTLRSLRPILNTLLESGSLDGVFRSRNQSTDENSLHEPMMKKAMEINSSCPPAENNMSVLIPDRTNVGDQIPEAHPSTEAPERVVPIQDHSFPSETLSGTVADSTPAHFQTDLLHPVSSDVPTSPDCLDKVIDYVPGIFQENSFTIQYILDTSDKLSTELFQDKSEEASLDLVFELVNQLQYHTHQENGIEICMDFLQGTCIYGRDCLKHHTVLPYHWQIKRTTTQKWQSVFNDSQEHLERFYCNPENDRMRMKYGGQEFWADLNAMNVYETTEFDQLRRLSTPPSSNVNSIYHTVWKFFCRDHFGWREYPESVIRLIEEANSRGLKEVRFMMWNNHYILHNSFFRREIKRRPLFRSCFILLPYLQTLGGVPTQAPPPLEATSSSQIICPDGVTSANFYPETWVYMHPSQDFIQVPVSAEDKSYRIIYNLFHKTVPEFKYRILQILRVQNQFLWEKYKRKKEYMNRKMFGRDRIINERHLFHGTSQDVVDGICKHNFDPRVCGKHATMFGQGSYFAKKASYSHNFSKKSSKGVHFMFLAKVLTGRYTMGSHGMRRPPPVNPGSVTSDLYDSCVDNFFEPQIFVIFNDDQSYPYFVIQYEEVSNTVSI

[2] = target: T2, IG-PARP-7 (I631G PARP-7) (Homo sapiens, UniProt Q7Z3E1, I631G); assay: Labeling by orthogonal NAD+ analogs in HEK 293T lysates expressing GFP-IG-PARP-7 (click with biotin-azide, Streptavidin-HRP); type: biochemical; details: HEK 293 T cell lysates, 100 µM NAD+ analog
T2 construct: expressed in transfected cells; host or cells: HEK 293T (lysate)
T2 sequence (Q7Z3E1 whole entry I631G): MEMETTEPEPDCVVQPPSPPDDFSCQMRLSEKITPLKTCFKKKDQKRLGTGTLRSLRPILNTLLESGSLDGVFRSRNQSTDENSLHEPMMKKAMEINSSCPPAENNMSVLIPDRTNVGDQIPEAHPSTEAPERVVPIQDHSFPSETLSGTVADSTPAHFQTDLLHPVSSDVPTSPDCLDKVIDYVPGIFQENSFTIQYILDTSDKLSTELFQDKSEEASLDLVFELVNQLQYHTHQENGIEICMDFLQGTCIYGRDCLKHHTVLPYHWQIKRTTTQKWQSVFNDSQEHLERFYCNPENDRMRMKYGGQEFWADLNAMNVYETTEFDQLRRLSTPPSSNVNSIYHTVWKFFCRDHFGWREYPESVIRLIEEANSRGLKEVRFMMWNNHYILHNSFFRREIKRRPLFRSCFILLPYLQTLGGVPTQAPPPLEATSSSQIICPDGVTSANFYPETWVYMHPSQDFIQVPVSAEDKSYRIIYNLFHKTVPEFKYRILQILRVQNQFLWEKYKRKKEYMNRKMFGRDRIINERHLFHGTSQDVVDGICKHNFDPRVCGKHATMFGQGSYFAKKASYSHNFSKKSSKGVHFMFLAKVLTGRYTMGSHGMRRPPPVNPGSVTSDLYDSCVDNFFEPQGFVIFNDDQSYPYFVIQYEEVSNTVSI
From the text: Identifying the protein targets of PARP-7 is a critical first step toward unraveling its function in cells. In previous work we have developed an engineered enzyme—modified substrate strategy for identifying relevant targets of individual PARP family members ([Carter-O'Connell et al., 2014]; [Carter-O'Connell et al., 2016]; [Carter-O'Connell and Cohen, 2015]; [Carter-O'Connell et al., 2018]). This chemical genetic (CG) method uses engineered PARPs and an orthogonal NAD^+ analogue that contains a clickable handle (e.g. an alkyne) that is located at the N-6 position of the adenine ring (5-Bn-6-a-NAD^+). […] Importantly, 5-Bn-6-a-NAD^+ is not used by wild-type (WT) PARPs and in this way is orthogonal to native NAD^+. […] We therefore sought a new orthogonal NAD^+ analogue that would serve as an efficient substrate for floor position engineered PARP-7, I631G PARP-7 (IG-PARP-7) (Figure 1a).
Figure 1. A chemical genetic strategy for identifying the direct MARylation targets of PARP-7. (a) Schematic of chemical genetic approach for identifying direct targets of PARP-7. (b) Crystal structure of human PARP1 bound to the non-hydrolyzable NAD^+ analog benzamide adenine dinucleotide (BAD). PDB: 6bhv. […] Following copper-catalyzed click chemistry with biotin-azide, proteins were resolved by SDS-PAGE and biotinylated proteins were detected by Western blot detection using Streptavidin-HRP. […]

## C[C@]1(c2nc3c(C(N)=O)cccc3[nH]2)CCCN1 [veliparib]
[1]
  decay of PARP-7-mediated MARylation of PARP-13.2: does not lead to the decay

## C#CCNc1ncnc2c1ncn2C1OC(COP(=O)(O)OP(=O)([O-])OCC2OC([n+]3cc(Cc4ccccc4)cc(C(N)=O)c3)C(O)C2O)C(O)C1O (centres unmarked) [5-Bn-6-a-NAD^+, reference compound]
[2]
  substrate for floor position engineered PARP-7 (IG-PARP-7): poor substrate
